Literature values as cited in publication PMC7904743, “WIDOCK: a reactive docking protocol for virtual screening of covalent inhibitors” (Journal of Computer-Aided Molecular Design, 2021).
Like-named read-outs stand apart in the source and are kept apart here.

How the values were obtained:
OTUB2 = OTUB2 protein labeling; experimental actives if % labeling higher than 50%; cited from earlier work
[1] = thiol reactivity, cited from earlier work
NUDT7 = details: protein labeling at 200 μM; experimental actives if % labeling higher than 50%; cited from earlier work
[2] = natural log of average kinetic rate constant
[3] = natural log of average rate constant

Row | Compound | OTUB2 % labeling (OTUB2) [%] | ln(avg k) [1, 2] | ln(avg k) [1, 3] | NUDT7 % labeling (NUDT7) [%]
1 | Cc1cc(Br)ccc1NC(=O)CCl [PCM-0102799, Cc1cc(Br)ccc1NC(=O)CCl] | 61 | -16.305 | -16.305 | 24
2 | O=C(CCl)NCc1nc2ccccc2s1 [PCM-0102803, O=C(CCl)NCc1nc2ccccc2s1] | 37 | -16.252 | -16.252 | 0
3 | NS(=O)(=O)c1ccc(NC(=O)CCl)cc1 [PCM-0102807, NS(=O)(=O)c1ccc(NC(=O)CCl)cc1] | 29 | -15.463 | -15.463 | 0
4 | O=C(CCl)Nc1nc(-c2ccc(F)cc2)cs1 [PCM-0102809, O=C(CCl)Nc1nc(-c2ccc(F)cc2)cs1] | 21 | -15.559 | -15.559 | 37
5 | C#CCN1CCN(C(=O)CCl)CC1 [PCM-0102811, C#CCN1CCN(C(=O)CCl)CC1] | 0 | -15.973 | -15.973 | 0
6 | O=C(CCl)N1CCN(Cc2ccc3c(c2)CCO3)CC1 [PCM-0102814, O=C(CCl)N1CCN(Cc2ccc3c(c2)CCO3)CC1] | 0 | -15.537 | -15.537 | 0
7 | CNC(=O)C1CCN(C(=O)CCl)CC1 [PCM-0102815, CNC(=O)C1CCN(C(=O)CCl)CC1] | 8 | -15.403 | -15.403 | 0
8 | CC(NC(=O)CCl)c1ccc2c(c1)CC(=O)N2 (stereo not drawn) [PCM-0102816, CC(NC(=O)CCl)c1ccc2c(c1)CC(=O)N2] | 29 | -16.367 | -16.367 | 22
9 | CC(C)(C)NC(=O)CNC(=O)CCl [PCM-0102817, CC(C)(C)NC(=O)CNC(=O)CCl] | 41 | -16.378 | -16.378 | 0
10 | O=C(CCl)N1CCN(Cc2ccc(Cl)cc2)CC1 [PCM-0102818, O=C(CCl)N1CCN(Cc2ccc(Cl)cc2)CC1] | 17 | -15.454 | -15.454 | 0
11 | Cc1cccc(CNC(=O)CCl)c1 [PCM-0102821, Cc1cccc(CNC(=O)CCl)c1] | 86 | -16.579 | -16.579 | 0
12 | CC1CCc2ccccc2N1C(=O)CCl (stereo not drawn) [PCM-0102822, CC1CCc2ccccc2N1C(=O)CCl] | 0 | -16.310 | -16.310 | 0
13 | O=C(CCl)N1CCC2(CC1)OCCO2 [PCM-0102823, O=C(CCl)N1CCC2(CC1)OCCO2] | 0 | -16.068 | -16.068 | 0
14 | O=C(CCl)N1CCCC2CCCCC21 (stereo not drawn) [PCM-0102826, O=C(CCl)N1CCCC2CCCCC21] | 0 | -16.060 | -16.060 | 7
15 | COC(=O)C1(NC(=O)CCl)CCC(C)CC1 (stereo not drawn) [PCM-0102827, COC(=O)C1(NC(=O)CCl)CCC(C)CC1] | 0 | -16.743 | -16.743 | 0
16 | CCC1CCCCN1C(=O)CCl (stereo not drawn) [PCM-0102828, CCC1CCCCN1C(=O)CCl] | 0 | -16.282 | -16.282 | 4
17 | Cc1ccccc1CC(=O)NNC(=O)CCl [PCM-0102829, Cc1ccccc1CC(=O)NNC(=O)CCl] | 30 | -17.272 | -17.272 | 0
18 | CC1CN(C(=O)CCl)CCO1 (stereo not drawn) [PCM-0102830, CC1CN(C(=O)CCl)CCO1] | 0 | -16.218 | -16.218 | 0
